Measured values as given in US10329249B1, “Sulindac derivatives” (KING SAUD UNIVERSITY, priority 2018, dated 2019).

How the values were obtained:
[1] = system: gastric lesions induced by indomethacin; test: Gastric lesions induced by indomethacin; type: in vivo, rats; conditions: for Ulcer Index: rats given indomethacin 30 mg/kg oral, Sulindac 100 mg/kg, Compound 8 150 mg/kg half an hour before, mean ±SEM
Experimental: (§1) All animal experiments used healthy male albino rats (200 g-220 g) and mice. The animals were kept in standard plastic animal cages in groups of six animals each with a 12 hour light and dark cycle. The animals were acclimatized to laboratory conditions for a week prior to the experiments.
In a study of the effect of sulindac derivatives on gastric lesions induced by indomethacin, a suspension of indomethacin in 1.0% carboxymethylcellulose (CMC) in water (6 mg/mL) at a dose of (30 mg/kg) body weight was administered orally to rats. Control rats were treated with the vehicle. Sulindac derivative Compound 8 was administered half an hour prior to indomethacin administration at a dose of 150 mg/kg.

[2] = LD50 by the Karber method; type: in vivo; conditions: 24 hours observation
Experimental: In a study of the LD50 of sulindac derivative Compound 8, the LD50 (lethal dose 50%) was calculated for compound 8 by the Karber method. For determination of LD50, an observation was made for 24 hours, and symptoms of toxicity and rate of mortality were noted. Expired animals were counted at the end of the study period for the calculation of LD50 according to: LD50=LD100−Σ(a×b)/n, where n is the total number of animals in a group, a is the difference between two successive doses of administered extract/substance, b is the average number of dead animals in two successive doses, and LD100 is the lethal dose causing 100% death of all test animals.

malondialdehyde (MDA) = test: Determination of malondialdehyde in stomach tissue; type: in vivo, rats; conditions: Sulindac 100, Compound 8 150, mean ±SEM
Experimental: In a study for the determination of malondialdehyde, non-protein sulfhydryls, and total protein, stomach tissues were removed from rats, and each tissue was homogenized in 0.15M KCl to give a 10% w/v homogenate. Aliquots of homogenate (1 mL) were incubated at 37° C. for three hours in a metabolic shaker. Then 1 mL of 10% aqueous trichloroacetic acid was added to the homogenate and mixed. This suspension was then centrifuged at 4000 rpm for 10 min. […] The mixture was cooled and diluted with 1 mL of distilled water. The absorbance of the solution was then read at 535 nm. The content of malondialdehyde (MDA) (nmol/g) was then calculated by reference to a standard curve of MDA solution.

[3] = DPPH free radical scavenging (antioxidant activity); conditions: 100 μg/mL compound in 3 mL 0.004% DPPH, 520 nm after 30 min; mean of three replicates ±SD
Experimental: The antioxidant activity was measured based on the scavenging activity of the stable DPPH free radical. 100 μg/mL of the twenty-five sulindac derivative compounds were added to 3 mL 0.004% DPPH solution. Methanol was added to 3 mL 0.004% DPPH solution for the control sample. Absorbance was determined at 520 nm after 30 min. Butylated hydroxytoluene (BHT) was used as a reference drug. The percent inhibition was calculated by the equation:
[formula] where At is the absorbance of the compound and A0 is the absorbance of the control.

[4] = system: acetic acid induced writhing; test: Analgesic activity by acetic acid induced writhing; type: in vivo, mice; conditions: Compound 8 150 mg/kg, Sulindac 100 mg/kg; for % Inhibition (writhing): versus acetic acid group; for Movements (writhing): counted for 20 minutes after i.p. acetic acid, mean ±SEM
Experimental: as §1
In an analgesic activity by writhing study, writhing was induced in mice by intraperitoneal administration of 0.1 mL of 1% acetic acid. The number of writhing movements was counted for 20 minutes. The writhing test was performed after the administration of the vehicle or sulindac derivative compound.

SMILES | Ulcer Index [1] | % Inhibition (ulcer index) ([1]; rats given indomethacin 30 mg/kg, Compound 8 150 mg/kg, versus indomethacin alone) [%] | # Dead ([2]; dose 100 mg/kg) | # Dead ([2]; dose 200 mg/kg) | # Dead ([2]; dose 400 mg/kg) | # Dead ([2]; dose 800 mg/kg) | # Dead ([2]; dose 1600 mg/kg) | # Dead ([2]; dose 2000 mg/kg) | LD50 at 24 h ([2]; in vivo, Karber method, LD50=LD100−Σ(a×b)/n) [mg/kg] | MDA (malondialdehyde (MDA); drug alone, no ethanol) [nmol/g] | MDA (malondialdehyde (MDA); with 80% Ethanol 1 mL) [nmol/g] | Scavenging Effect [3] [%] | % Inhibition (writhing) [4] [%] | Movements (writhing) [4]
CC1=C(CC(=O)N/N=C\c2ccc(N(C)C)cc2)c2cc(F)ccc2/C1=C\c1ccc([S+](C)[O-])cc1 (stereo not shown) [Compound 8] | 22.16 ± 1.10 | 40.09 | 0 | 0 | 1 | 3 | 5 | 9 | 1310 | 1.06 ± 0.02 | 1.59 ± 0.06 | 85.10 ± 6.80 | 56.86 | 14.66 ± 0.95
CC1=C(CC(=O)O)c2cc(F)ccc2/C1=C\c1ccc([S+](C)[O-])cc1 (stereo not shown) [Sulindac] | 32.00 ± 3.86 | – | – | – | – | – | – | – | – | 1.31 ± 0.04 | 2.28 ± 0.11 | – | 74.01 | 8.83 ± 0.70
